Source: ChEMBL document CHEMBL1201862, “PubChem BioAssay data set” (2004)
Calls of active or inactive are those of the source.

Key:
HEK293 [1] = experiment: inhibition of NOD1-driven NF-kB reporter – cell-based, luminescence, uHTS, primary screen (AID 1578); assay type: functional; details: Homo sapiens
HEK293 [2] = experiment: cells; assay type: functional, cell-based; details: Homo sapiens
HEK293 [3] = experiment: cells; assay type: functional, cell-based; details: Homo sapiens; remark: listed apart in the source
[4] = molecular target: Nucleotide-binding oligomerization domain-containing protein 2 (Homo sapiens, UniProt Q9HC29); experiment: inhibition of NOD2-driven NF-kB reporter – cell-based, luminescence, uHTS, HEK293 (AID 1566); assay type: functional
Sequence of Nucleotide-binding oligomerization domain-containing protein 2 (Q9HC29 whole entry, the tested form may be a part): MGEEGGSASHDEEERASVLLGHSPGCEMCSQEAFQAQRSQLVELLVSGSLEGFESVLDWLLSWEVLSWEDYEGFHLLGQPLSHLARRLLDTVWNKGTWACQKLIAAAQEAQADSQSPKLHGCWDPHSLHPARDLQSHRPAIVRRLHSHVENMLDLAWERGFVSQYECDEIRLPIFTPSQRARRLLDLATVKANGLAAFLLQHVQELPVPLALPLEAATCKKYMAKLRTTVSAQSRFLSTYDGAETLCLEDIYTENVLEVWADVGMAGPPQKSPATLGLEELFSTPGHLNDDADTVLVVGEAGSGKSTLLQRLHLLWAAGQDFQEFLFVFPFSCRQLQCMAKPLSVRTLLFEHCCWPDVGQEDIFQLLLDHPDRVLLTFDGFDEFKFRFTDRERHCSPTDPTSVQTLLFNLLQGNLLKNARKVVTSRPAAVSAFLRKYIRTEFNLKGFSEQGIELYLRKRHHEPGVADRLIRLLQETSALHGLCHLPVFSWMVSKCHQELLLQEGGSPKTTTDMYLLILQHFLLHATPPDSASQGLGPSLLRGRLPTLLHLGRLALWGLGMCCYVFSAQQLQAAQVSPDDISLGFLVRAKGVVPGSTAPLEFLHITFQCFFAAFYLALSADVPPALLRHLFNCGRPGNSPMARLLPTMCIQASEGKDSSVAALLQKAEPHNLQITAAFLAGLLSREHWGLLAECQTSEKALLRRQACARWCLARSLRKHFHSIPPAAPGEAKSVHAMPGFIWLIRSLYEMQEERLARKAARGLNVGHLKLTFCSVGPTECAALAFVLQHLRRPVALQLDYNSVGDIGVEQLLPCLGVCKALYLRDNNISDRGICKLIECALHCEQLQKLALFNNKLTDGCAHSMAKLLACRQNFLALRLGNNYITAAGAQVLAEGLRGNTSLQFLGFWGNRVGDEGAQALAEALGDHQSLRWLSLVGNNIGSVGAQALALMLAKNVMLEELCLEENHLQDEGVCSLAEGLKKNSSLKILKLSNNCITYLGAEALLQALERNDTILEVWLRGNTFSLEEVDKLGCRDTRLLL

HEK293 [5] = experiment: NOD2 signaling inhibitors in MDP-stimulated cells, cell-based, uHTS, luminescence (AID 2001); assay type: functional; details: Homo sapiens
HEK293 [6] = experiment: cells; assay type: functional, cell-based; details: Homo sapiens; remark: listed apart in the source
Tumor necrosis factor = Tumor necrosis factor (Homo sapiens, UniProt P01375); experiment: analog potency on TNFa NF-kB signaling – cell-based, revised, SAR follow-up (AID 2337); assay type: functional
[7] = molecular target: Nucleotide-binding oligomerization domain-containing protein 1 (Homo sapiens, UniProt Q9Y239); experiment: blockers of NOD1 pathway activity – revised, SAR follow-up (AID 2333); assay type: functional
[8] = molecular target: T1, Microphthalmia-associated transcription factor (Homo sapiens, UniProt O75030); experiment: reducers of TRPM1 reporter luminescence, concentration series – cell-based, SK-MEL-5, cherry-picked, set 3, MITF inhibitor project, dose response (AID 493073); assay type: functional;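 note: SK-MEL-5 melanoma cells with luciferase driven by the MITF target TRPM1 promoter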
T1 sequence (O75030 whole entry): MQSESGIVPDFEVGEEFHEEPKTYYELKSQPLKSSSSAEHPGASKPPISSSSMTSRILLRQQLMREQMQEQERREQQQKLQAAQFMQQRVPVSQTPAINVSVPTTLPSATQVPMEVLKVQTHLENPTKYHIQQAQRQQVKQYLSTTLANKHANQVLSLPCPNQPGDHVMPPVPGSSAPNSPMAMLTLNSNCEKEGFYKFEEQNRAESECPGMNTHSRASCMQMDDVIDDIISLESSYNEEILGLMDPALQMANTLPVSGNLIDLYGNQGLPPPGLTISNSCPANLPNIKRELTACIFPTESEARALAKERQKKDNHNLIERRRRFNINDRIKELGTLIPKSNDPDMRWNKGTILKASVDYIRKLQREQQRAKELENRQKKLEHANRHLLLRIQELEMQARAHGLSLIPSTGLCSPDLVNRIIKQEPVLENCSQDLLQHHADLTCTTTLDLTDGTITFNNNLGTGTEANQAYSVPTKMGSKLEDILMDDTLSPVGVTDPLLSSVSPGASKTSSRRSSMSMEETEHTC

[9] = reduction of Shn3 3'UTR-driven luciferase in osteoblasts – cell-based, Clone20 osteoblasts, firefly luciferase, cherry-picked, dose response (AID 624132); assay type: functional;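 note: firefly luciferase luminescence from reporter carrying the Shn3 3'UTR in osteoblasts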
[10] = loss of viability in HepG2 cells – cell-based, CellTiter-Glo, cherry-picked, cytotoxicity control for Shn3 inhibitor project, dose response (AID 624134); assay type: functional
[11] = non-specific 3'UTR reporter inhibition in Clone20-Shn3RL – cell-based, Renilla luciferase, cherry-picked, counter-screen for Shn3 inhibitor project, dose response (AID 624133); assay type: functional
HEK293 [12] = experiment: cells; details: Homo sapiens
[13] = molecular target: T2, RNA-binding protein pos-1 (Caenorhabditis elegans, UniProt G5EF15); experiment: disruptors of C. elegans POS-1 RNA interaction – biochemical, fluorescence polarization, dose response (AID 1964);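 note: purified POS-1 fused to maltose binding protein made in E. coli; potency of compounds blocking POS-1 binding to fluorescent RNA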
T2 sequence (G5EF15 whole entry): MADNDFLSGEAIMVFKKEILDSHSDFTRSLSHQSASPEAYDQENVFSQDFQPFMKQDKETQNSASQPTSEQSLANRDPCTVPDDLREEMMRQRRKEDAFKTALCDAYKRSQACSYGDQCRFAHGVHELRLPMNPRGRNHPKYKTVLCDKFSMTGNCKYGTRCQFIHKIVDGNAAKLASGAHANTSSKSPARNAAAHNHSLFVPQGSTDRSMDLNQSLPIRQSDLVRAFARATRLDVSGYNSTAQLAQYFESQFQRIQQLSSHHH

Aspartyl aminopeptidase = Aspartyl aminopeptidase (Plasmodium falciparum 3D7, UniProt Q8I2J3)
Procathepsin L = Procathepsin L (Homo sapiens, UniProt P07711)
SUMO-activating enzyme [14] = molecular target: T3, SUMO-activating enzyme (Homo sapiens, UniProt Q9UBT2); experiment: blockers of UBC9-mediated SUMO conjugation – biochemical, AlphaScreen, SUMOylation inhibitor project, confirmation (AID 2018); assay type: functional
T3 sequence (Q9UBE0 whole entry): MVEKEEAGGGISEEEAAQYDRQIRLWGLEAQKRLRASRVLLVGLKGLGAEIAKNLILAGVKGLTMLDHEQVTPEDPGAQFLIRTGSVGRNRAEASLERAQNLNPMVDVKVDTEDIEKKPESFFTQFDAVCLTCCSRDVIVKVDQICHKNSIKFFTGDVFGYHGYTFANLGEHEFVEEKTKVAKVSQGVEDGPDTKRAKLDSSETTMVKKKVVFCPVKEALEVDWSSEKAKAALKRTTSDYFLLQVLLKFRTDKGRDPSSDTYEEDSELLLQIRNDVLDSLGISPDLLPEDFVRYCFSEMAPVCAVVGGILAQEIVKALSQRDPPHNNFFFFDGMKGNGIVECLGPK
T3 sequence (Q9UBT2 whole entry): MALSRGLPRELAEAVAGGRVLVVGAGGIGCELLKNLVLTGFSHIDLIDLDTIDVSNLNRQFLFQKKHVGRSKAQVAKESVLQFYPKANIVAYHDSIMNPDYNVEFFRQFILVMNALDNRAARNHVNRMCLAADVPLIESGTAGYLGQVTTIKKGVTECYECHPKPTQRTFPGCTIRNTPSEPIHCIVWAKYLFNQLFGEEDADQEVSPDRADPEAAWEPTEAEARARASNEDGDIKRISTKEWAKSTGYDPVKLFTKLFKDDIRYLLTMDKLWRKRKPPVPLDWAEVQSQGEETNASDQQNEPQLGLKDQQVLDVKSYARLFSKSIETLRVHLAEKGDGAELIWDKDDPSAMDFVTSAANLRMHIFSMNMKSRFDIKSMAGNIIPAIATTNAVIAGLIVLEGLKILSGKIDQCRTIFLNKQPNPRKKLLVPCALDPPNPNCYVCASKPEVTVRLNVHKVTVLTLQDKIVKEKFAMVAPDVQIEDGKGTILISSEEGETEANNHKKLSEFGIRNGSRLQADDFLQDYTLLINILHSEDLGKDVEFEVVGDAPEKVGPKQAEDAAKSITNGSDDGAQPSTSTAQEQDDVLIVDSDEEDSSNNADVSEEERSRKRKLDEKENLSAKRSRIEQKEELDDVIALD

[15] = molecular target: T4, Zinc finger protein mex-5 (Caenorhabditis elegans, UniProt Q9XUB2); experiment: potency of MEX-5 RNA-binding blockers – biochemical, C. elegans, fluorescence polarization, dose response (AID 1960)
T4 sequence (Q9XUB2 whole entry): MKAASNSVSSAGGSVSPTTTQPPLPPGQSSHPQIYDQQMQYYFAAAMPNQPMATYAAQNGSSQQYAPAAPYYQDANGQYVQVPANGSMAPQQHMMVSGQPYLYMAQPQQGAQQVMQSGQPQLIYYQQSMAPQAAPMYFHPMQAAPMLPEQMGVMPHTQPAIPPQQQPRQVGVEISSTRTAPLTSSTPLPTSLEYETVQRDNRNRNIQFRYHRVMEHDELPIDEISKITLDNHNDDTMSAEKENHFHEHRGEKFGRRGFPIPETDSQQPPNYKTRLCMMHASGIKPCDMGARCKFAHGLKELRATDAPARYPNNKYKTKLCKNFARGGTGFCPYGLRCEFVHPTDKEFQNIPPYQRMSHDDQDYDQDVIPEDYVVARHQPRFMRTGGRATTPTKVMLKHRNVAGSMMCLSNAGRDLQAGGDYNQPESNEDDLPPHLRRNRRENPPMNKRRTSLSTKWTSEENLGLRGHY

Large T antigen = Large T antigen (Simian virus 40, UniProt P03070); assay type: functional, Betapolyomavirus macacae;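 note: Confirmatory-stage PubChem screen for compounds that inhibit SV40 T antigen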
Sequence of Large T antigen (P03070 whole entry): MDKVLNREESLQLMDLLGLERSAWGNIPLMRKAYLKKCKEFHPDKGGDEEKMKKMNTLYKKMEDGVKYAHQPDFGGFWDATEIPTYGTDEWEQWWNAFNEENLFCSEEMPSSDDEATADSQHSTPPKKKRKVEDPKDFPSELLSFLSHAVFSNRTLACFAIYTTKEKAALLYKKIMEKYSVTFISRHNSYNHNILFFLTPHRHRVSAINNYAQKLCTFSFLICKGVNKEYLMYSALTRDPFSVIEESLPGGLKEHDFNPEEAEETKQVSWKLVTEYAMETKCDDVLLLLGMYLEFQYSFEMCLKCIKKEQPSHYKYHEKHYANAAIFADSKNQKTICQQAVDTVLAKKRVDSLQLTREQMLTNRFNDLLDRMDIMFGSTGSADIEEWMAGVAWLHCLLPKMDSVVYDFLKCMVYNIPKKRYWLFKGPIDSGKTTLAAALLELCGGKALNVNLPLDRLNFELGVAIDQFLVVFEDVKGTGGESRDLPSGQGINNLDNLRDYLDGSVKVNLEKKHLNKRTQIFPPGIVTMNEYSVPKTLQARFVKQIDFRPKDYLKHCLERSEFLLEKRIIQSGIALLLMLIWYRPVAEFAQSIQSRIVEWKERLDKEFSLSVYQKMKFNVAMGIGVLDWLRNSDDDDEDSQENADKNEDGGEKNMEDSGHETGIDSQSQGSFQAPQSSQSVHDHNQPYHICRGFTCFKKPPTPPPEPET

SUMO-activating enzyme [16] = molecular target: T3, SUMO-activating enzyme; experiment: blockers of SAE1/SAE2–UBC9 SUMO transfer – biochemical, HTRF, uHTS, primary screen (AID 2006); assay type: protein-complex assay
[17] = molecular target: Intestinal-type alkaline phosphatase (Homo sapiens, UniProt P09923); experiment: activation of human intestinal alkaline phosphatase – biochemical, dose response (AID 488873); assay type: functional
Sequence of Intestinal-type alkaline phosphatase (Homo sapiens, UniProt P09923) (P09923 whole entry): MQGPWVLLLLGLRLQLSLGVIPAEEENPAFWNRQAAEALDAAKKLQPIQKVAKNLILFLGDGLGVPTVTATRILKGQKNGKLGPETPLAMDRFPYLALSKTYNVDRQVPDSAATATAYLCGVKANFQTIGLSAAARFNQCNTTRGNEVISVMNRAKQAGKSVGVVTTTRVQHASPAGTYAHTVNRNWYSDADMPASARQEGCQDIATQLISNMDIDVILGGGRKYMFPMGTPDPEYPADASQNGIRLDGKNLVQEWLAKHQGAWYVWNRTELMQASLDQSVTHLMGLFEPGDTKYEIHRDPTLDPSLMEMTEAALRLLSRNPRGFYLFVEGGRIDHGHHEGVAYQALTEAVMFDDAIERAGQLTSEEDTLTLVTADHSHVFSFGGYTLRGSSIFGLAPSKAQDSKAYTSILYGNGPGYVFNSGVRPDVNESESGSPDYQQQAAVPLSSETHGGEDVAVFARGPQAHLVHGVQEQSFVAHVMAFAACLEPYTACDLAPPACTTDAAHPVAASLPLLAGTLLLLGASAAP

[18] = molecular target: Intestinal-type alkaline phosphatase (Mus musculus, UniProt P24822); experiment: mouse intestinal alkaline phosphatase activators, dose response, biochemical, luminescence, uHTS hits (AID 488783); assay type: functional
Sequence of Intestinal-type alkaline phosphatase (Mus musculus, UniProt P24822) (P24822 whole entry): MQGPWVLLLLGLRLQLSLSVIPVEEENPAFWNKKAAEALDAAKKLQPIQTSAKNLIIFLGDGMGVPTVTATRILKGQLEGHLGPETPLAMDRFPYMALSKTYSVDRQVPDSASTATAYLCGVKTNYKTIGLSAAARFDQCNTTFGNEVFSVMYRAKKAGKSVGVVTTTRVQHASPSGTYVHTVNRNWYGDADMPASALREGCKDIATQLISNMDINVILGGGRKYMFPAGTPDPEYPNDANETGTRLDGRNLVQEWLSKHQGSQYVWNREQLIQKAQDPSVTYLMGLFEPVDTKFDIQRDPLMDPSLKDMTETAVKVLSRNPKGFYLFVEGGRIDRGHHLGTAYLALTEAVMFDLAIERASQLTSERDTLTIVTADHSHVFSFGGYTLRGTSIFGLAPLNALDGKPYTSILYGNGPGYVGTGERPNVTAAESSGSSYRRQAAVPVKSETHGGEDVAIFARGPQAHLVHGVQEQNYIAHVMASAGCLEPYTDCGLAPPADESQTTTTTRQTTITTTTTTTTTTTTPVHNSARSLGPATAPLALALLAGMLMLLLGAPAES

[19] = molecular target: T5, Alkaline phosphatase, tissue-nonspecific isozyme (Homo sapiens, UniProt P05186); experiment: activation of tissue-nonspecific alkaline phosphatase – biochemical, TNAP isozyme, mouse IAP uHTS hits, selectivity assay for mouse IAP activator project, dose response (AID 488880); assay type: functional
T5 sequence (P05186 whole entry): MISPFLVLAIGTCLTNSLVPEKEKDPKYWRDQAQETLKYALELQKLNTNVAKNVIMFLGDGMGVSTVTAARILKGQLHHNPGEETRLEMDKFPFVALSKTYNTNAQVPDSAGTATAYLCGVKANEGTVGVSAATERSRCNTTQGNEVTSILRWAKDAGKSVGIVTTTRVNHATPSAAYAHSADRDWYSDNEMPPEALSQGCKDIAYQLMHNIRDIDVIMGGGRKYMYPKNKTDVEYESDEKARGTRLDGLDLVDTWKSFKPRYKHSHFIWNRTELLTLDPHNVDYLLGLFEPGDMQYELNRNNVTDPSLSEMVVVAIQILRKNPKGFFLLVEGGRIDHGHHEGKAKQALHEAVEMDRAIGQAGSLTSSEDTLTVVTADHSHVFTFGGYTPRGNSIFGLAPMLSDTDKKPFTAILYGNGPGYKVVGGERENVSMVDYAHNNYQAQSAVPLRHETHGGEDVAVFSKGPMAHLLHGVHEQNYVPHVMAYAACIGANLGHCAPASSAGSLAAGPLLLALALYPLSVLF

[20] = molecular target: Dual specificity tyrosine-phosphorylation-regulated kinase 1A (Rattus norvegicus, UniProt Q63470); assay type: biochemical, Homo sapiens
cells [21] = assay type: functional, cell-based
[22] = molecular target: T6, Trace amine-associated receptor 1 (Homo sapiens, UniProt Q96RJ0); experiment: Fluorescence-based cell-based high throughput dose response assay to identify agonists of the human trace amine associated receptor 1 (TAAR1).; assay type: functional
T6 sequence (Q96RJ0 whole entry): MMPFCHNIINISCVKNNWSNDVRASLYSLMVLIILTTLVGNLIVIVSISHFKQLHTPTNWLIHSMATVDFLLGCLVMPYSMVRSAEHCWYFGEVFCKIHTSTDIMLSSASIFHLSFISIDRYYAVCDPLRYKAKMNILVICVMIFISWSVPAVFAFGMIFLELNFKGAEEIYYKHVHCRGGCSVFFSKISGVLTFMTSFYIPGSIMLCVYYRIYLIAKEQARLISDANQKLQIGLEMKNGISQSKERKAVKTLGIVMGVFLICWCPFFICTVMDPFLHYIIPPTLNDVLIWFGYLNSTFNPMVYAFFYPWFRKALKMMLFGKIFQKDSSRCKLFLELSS

Albumin = Albumin (Bos taurus, UniProt P02769); experiment: Counterscreen for inhibitors of T-cell receptor (TCR)-CD3 interaction: Fluorescence-based biochemical high throughput dose response assay to identify inhibitors of T-cell receptor (TCR)-CD3 interaction using a TAMRA-labeled BSA probe.; assay type: functional
Sequence of Albumin (P02769 whole entry): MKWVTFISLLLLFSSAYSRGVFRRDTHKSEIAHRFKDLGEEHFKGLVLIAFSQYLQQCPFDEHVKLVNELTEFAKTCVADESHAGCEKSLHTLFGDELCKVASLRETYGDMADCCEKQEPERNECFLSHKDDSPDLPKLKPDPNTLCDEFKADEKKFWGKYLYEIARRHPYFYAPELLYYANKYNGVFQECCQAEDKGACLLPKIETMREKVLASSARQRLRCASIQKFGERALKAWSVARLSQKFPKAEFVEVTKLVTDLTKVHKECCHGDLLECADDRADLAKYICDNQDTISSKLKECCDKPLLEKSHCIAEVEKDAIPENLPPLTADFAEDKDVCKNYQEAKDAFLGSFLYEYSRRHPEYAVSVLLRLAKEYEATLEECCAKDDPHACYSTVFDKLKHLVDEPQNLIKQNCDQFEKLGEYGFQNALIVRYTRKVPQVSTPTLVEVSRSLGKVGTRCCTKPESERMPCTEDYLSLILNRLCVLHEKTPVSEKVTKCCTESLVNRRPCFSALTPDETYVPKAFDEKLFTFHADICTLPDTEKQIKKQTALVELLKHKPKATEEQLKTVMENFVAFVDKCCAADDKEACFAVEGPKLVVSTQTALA

[23] = molecular target: T6, Trace amine-associated receptor 1; experiment: Counterscreen for agonists of the human trace amine associated receptor 1 (hTAAR1): Fluorescence-based cell-based high throughput dose response assay to identify hTAAR1 agonist that also desensitize TAAR1 receptor response.; assay type: functional
cells [24] = assay type: functional, cell-based; remark: listed apart in the source
Leucine aminopeptidase = molecular target: T7, Leucine aminopeptidase (Plasmodium falciparum 3D7, UniProt Q8IL11); experiment: P. falciparum M17LAP inhibitors, primary screen, biochemical, fluorogenic H-Leu-NHMec substrate, 1536-well (AID 1619); assay type: functional
T7 sequence (Q8IL11 whole entry): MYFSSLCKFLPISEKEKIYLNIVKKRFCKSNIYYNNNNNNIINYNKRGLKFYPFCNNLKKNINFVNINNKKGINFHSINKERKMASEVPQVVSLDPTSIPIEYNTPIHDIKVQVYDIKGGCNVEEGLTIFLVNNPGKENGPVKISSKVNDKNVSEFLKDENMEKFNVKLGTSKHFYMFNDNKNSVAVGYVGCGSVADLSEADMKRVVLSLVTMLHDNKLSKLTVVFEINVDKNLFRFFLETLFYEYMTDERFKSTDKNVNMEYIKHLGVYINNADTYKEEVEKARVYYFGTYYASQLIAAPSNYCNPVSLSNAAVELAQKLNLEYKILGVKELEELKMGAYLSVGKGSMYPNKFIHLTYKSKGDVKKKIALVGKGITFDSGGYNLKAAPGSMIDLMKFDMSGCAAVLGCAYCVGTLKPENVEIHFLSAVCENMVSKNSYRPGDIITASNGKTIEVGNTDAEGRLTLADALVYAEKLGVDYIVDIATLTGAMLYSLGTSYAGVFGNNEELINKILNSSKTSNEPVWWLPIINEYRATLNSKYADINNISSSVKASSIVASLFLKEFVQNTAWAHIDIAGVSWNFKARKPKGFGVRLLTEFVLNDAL

Bcl-2-like protein 10 = molecular target: T8, Bcl-2-like protein 10 (Homo sapiens, UniProt Q9HD36); experiment: Bcl-B/TR3 peptide binding disruption – biochemical, fluorescence polarization, FITC-TR3 peptide, selectivity assay for Bfl-1 inhibitor project, primary screen (AID 748);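 note: fluorescence polarization from a fluorescein-labelled TR3 peptide binding purified Bcl-B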
T8 sequence (Q9HD36 whole entry): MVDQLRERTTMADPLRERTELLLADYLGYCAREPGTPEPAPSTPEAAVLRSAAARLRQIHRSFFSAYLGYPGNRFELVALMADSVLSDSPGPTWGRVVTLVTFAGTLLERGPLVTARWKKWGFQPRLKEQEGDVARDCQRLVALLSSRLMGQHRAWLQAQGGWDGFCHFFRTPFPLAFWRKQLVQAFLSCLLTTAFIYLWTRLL

[25] = molecular target: Glyceraldehyde-3-phosphate dehydrogenase (Homo sapiens, UniProt P04406)
Estrogen receptor beta = Estrogen receptor beta (Homo sapiens, UniProt Q92731); experiment: blockers of SRC-3 recruitment to ERβ – biochemical, ELISA, streptavidin-HRP readout, orthogonal assay, confirmation (AID 1060)
[26] = molecular target: Alkaline phosphatase, placental type (Homo sapiens, UniProt P05187); experiment: human placental alkaline phosphatase inhibition – biochemical, luminescence, confirmation (AID 1512); assay type: functional
Sequence of Alkaline phosphatase, placental type (P05187 whole entry): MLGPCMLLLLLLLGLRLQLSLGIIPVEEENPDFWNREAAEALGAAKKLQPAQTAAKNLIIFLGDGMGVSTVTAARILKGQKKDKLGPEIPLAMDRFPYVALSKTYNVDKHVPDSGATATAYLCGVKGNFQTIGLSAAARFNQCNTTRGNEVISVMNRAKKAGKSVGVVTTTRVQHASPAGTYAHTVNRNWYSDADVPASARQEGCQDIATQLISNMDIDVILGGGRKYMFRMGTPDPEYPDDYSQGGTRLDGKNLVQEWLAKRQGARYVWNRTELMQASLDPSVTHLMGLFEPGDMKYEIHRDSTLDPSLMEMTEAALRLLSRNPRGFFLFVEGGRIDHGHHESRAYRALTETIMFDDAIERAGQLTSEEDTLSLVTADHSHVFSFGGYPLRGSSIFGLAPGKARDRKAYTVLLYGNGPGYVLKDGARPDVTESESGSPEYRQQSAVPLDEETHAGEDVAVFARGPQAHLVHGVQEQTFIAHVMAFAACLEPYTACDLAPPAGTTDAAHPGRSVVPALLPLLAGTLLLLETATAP

[27] = molecular target: T5, Alkaline phosphatase, tissue-nonspecific isozyme; experiment: potency against alkaline phosphatase TNAP – biochemical, luminescent, dose response, SAR follow-up (AID 1056)

CCOC(=O)N1CCN(C(=O)c2ccc(Cn3c(=S)[nH]c4ccc(Br)cc4c3=O)cc2)CC1
inactive: IC50 (HEK293 [3]) > 20 µM | IC50 (HEK293 [6]) > 20 µM | AC50 [10] > 70 µM
active: EC50 (HEK293 [1]) 4.23 µM | IC50 (HEK293 [2]) 9.03 µM | EC50 [4] 4.18 µM | IC50 (HEK293 [5]) 6.26 µM | IC50 (Tumor necrosis factor) 4.69 µM | IC50 [7] 4.77 µM | AC50 [8] 3.52 µM | AC50 [9] 1.25 µM | AC50 [11] 0.793 µM | IC50 (HEK293 [12]) 18.7 µM

O=C(N/N=C/c1ccc(O)c(O)c1)N/N=C/c1ccc(O)c(O)c1
inconclusive: EC50 [15] 4.86 µM
active: EC50 [13] 16.2 µM | IC50 (Aspartyl aminopeptidase) 2.79 µM | IC50 (SUMO-activating enzyme [14]) 0.69 µM | IC50 (Large T antigen) 0.73 µM | IC50 (SUMO-activating enzyme [16]) 2.11 µM | EC50 [17] 66.2 µM | EC50 [18] 4.96 µM | EC50 [19] 79.4 µM | AC50 [20] 1.63 µM | EC50 [22] 0.647 µM | IC50 [23] > 9.97 µM
> 59.6 µM (not active): IC50 (Procathepsin L)
inactive: IC50 (cells [21]) > 29.9 µM | IC50 (Albumin) > 94.1 µM | EC50 (cells [24]) > 29.9 µM

O=C(CSc1nnc(-c2ccccc2)[nH]1)c1ccc(O)c(O)c1
active: IC50 (Leucine aminopeptidase) 8.31 µM | IC50 (Bcl-2-like protein 10) 31.5 µM | IC50 (Large T antigen) 15.2 µM | EC50 [17] 42.4 µM | IC50 [26] 11.4 µM | IC50 [27] 5.9 µM | EC50 [18] 63.4 µM | EC50 [19] 36.4 µM
> 100 µM (not active): IC50 [25]
15.6 µM (not active): IC50 (Estrogen receptor beta)
